Source: ChEMBL document CHEMBL1201862, “PubChem BioAssay data set” (2004)
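Following 48 hours of exposure in 96-well plates, responses at five concentrations were used to interpolate endpoints linearly. GI50 is the concentration that inhibits growth by half.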 The source made the active and inactive calls. Rule as the data show it: active = GI50 up to about 1.1 µM and inactive = higher.

Assays:
Assay in all cases: inhibition of tumour cell growth, NCI panel, 48 h
[1] = system: OVCAR-5
[2] = system: M14
[3] = system: HCT-15
[4] = system: CAKI-1
[5] = system: COLO 205
[6] = system: MCF7
[7] = system: HL-60
[8] = system: MDA-MB-435
[9] = system: SK-OV-3
[10] = system: Malme-3M
[11] = system: HT-29
[12] = system: MOLT-4
[13] = system: SW-620
[14] = system: T47D
[15] = system: SNB-75
[16] = system: NCI/ADR-RES
[17] = system: SF-539
[18] = system: OVCAR-3
[19] = system: SF-268
[20] = system: UO-31

| Compound | GI50 [1] | GI50 [2] | GI50 [3] [µM] | GI50 [4] | GI50 [5] | GI50 [6] | GI50 [7] | GI50 [8] | GI50 [9] | GI50 [10] | GI50 [11] | GI50 [12] | GI50 [13] | GI50 [14] | GI50 [15] | GI50 [16] | GI50 [17] | GI50 [18] | GI50 [19] | GI50 [20] |
| --- | --- | --- | --- | --- | --- | --- | --- | --- | --- | --- | --- | --- | --- | --- | --- | --- | --- | --- | --- | --- |
| COC(=O)C(Cc1ccccc1)NC(=O)CNC(=O)CSc1nnc(COc2ccc(Cl)cc2)n1-c1ccccc1 (stereo not given) | 18.7 µM (inactive) | 17.7 µM (inactive) | 18.1 | 12.7 µM (inactive) | 16.2 µM (inactive) | 18.2 µM (inactive) | 4.8 µM (inactive) | 18.2 µM (inactive) | 14.5 µM (inactive) | 18.7 µM (inactive) | 18.8 µM (inactive) | 3.55 µM (inactive) | 20.4 µM (inactive) | 12.5 µM (inactive) | 17.9 µM (inactive) | 20 µM (inactive) | 17.6 µM (inactive) | 16.7 µM (inactive) | 17.1 µM (inactive) | 1.69 µM (inactive) |
| O=C1c2cc([N+](=O)[O-])cnc2S(=O)(=O)N1c1ccc(Br)cc1 | > 100 µM (inactive) | > 100 µM (inactive) | > 100 | > 100 µM (inactive) | > 100 µM (inactive) | > 100 µM (inactive) | > 100 µM (inactive) | > 100 µM (inactive) | > 100 µM (inactive) | > 100 µM (inactive) | > 100 µM (inactive) | > 100 µM (inactive) | > 100 µM (inactive) | > 100 µM (inactive) | > 100 µM (inactive) | > 100 µM (inactive) | > 100 µM (inactive) | > 100 µM (inactive) | > 100 µM (inactive) | > 100 µM (inactive) |
| COc1ccc(NC(=O)c2cc(NC(=O)/C=C/c3ccccc3)c(OC)c(OC)c2)cc1 | 40.7 µM (inactive) | > 100 µM (inactive) | 3.99 | 8.73 µM (inactive) | 22.5 µM (inactive) | 3.69 µM (inactive) | 6.19 µM (inactive) | 3.07 µM (inactive) | 51.5 µM (inactive) | 18.2 µM (inactive) | 8.41 µM (inactive) | 6 µM (inactive) | 6.81 µM (inactive) | 8.91 µM (inactive) | 2.26 µM (inactive) | 28.5 µM (inactive) | 5.38 µM (inactive) | 60.1 µM (inactive) | 56.8 µM (inactive) | 1.98 µM (inactive) |
| O=C(Oc1cc(=O)c(OC(=O)c2ccccc2)co1)c1ccccc1 | > 100 µM (inactive) | > 100 µM (inactive) | 42.6 | > 100 µM (inactive) | > 100 µM (inactive) | > 100 µM (inactive) | 34.8 µM (inactive) | > 100 µM (inactive) | > 100 µM (inactive) | 25.3 µM (inactive) | 84.5 µM (inactive) | 33.3 µM (inactive) | > 100 µM (inactive) | 65.3 µM (inactive) | 45.6 µM (inactive) | 83.2 µM (inactive) | 46.5 µM (inactive) | > 100 µM (inactive) | 90.4 µM (inactive) | > 100 µM (inactive) |
| CN(C)CCNC(=O)c1ccc(Cl)c2cc3ccccc3nc12 | 1.83 µM (inactive) | 1.23 µM (inactive) | 0.54 | 0.448 µM (active) | 0.446 µM (active) | 0.381 µM (active) | 0.608 µM (active) | 0.951 µM (active) | 2.06 µM (inactive) | 0.731 µM (active) | 0.422 µM (active) | 0.265 µM (active) | 0.453 µM (active) | 3.01 µM (inactive) | 1.67 µM (inactive) | 0.927 µM (active) | 0.946 µM (active) | 1.22 µM (inactive) | 0.962 µM (active) | 0.404 µM (active) |
| N#Cc1c(NC(=S)NCc2ccccc2)sc2c1CCN(N1CCc3c(sc(NC(=S)NCc4ccccc4)c3C#N)C1)C2 | > 100 µM (inactive) | > 100 µM (inactive) | > 100 | > 100 µM (inactive) | > 100 µM (inactive) | > 100 µM (inactive) | > 100 µM (inactive) | > 100 µM (inactive) | > 100 µM (inactive) | > 100 µM (inactive) | > 100 µM (inactive) | > 100 µM (inactive) | > 100 µM (inactive) | > 100 µM (inactive) | > 100 µM (inactive) | > 100 µM (inactive) | > 100 µM (inactive) | > 100 µM (inactive) | > 100 µM (inactive) | > 100 µM (inactive) |
| O=[N+]([O-])c1ccc(N2N=C(c3ccc4ccccc4c3O)CC2c2ccc(Cl)cc2Cl)c([N+](=O)[O-])c1 (stereo not given) | 37.2 µM (inactive) | > 10 µM (inactive) | 27.2 | 54.6 µM (inactive) | 44.7 µM (inactive) | 40.9 µM (inactive) | 7.59 µM (inactive) | 29.5 µM (inactive) | 47.8 µM (inactive) | 32.2 µM (inactive) | 40.1 µM (inactive) | 14.9 µM (inactive) | 37.5 µM (inactive) | 27.7 µM (inactive) | 92.7 µM (inactive) | 28.6 µM (inactive) | 25.6 µM (inactive) | 33.7 µM (inactive) | 53.1 µM (inactive) | 18.7 µM (inactive) |
| COC1=CC(=O)c2c(O)c3c(c(O)c2C1=O)C=C(C)OC3O (stereo not given) | 2.43 µM (inactive) | 0.281 µM (active) | 0.349 | 3.52 µM (inactive) | 0.222 µM (active) | 0.39 µM (active) | 0.731 µM (active) | 1.25 µM (inactive) | 8.45 µM (inactive) | 0.277 µM (active) | 0.541 µM (active) | 1.58 µM (inactive) | 0.828 µM (active) | 2.13 µM (inactive) | 1.57 µM (inactive) | 1.51 µM (inactive) | 1.58 µM (inactive) | 1.03 µM (active) | 2.18 µM (inactive) | 4.04 µM (inactive) |
| C=C(C)[C@@H]1CCC2=C[C@@H](OC2=O)[C@@H](C(=C)C)C2=CC(C(=O)O)=C(C1)O2 | > 100 µM (inactive) | > 100 µM (inactive) | > 100 | > 100 µM (inactive) | > 100 µM (inactive) | 68.1 µM (inactive) | 78 µM (inactive) | > 100 µM (inactive) | > 100 µM (inactive) | > 100 µM (inactive) | > 100 µM (inactive) | 46.3 µM (inactive) | > 100 µM (inactive) | 59.2 µM (inactive) | > 100 µM (inactive) | > 100 µM (inactive) | > 100 µM (inactive) | 34.1 µM (inactive) | > 100 µM (inactive) | 26 µM (inactive) |
| CC(C)=NC(C(=O)O)C(C)(C)S (stereo not given) | > 100 µM (inactive) | > 100 µM (inactive) | > 100 | > 100 µM (inactive) | > 100 µM (inactive) | > 100 µM (inactive) | > 100 µM (inactive) | > 100 µM (inactive) | > 100 µM (inactive) | > 100 µM (inactive) | > 100 µM (inactive) | > 100 µM (inactive) | > 100 µM (inactive) | > 100 µM (inactive) | > 100 µM (inactive) | > 100 µM (inactive) | > 100 µM (inactive) | > 100 µM (inactive) | > 100 µM (inactive) | > 100 µM (inactive) |
